# Experimental data reported in ChEMBL document CHEMBL1201862, “PubChem BioAssay data set” (2004).
# Active and inactive are the calls of the source.
# Legend:
# [1] = HepG2 cell cytotoxicity, dose response, cytotoxicity control, plate reader, cherry-pick, antagonist series (AID 743416); type: functional, cell-based
# [2] = MC4R antagonists, dose response, counter-screen for LGR2 antagonist project, cell-based, plate reader, cherry pick (AID 743444); type: functional;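 further: transfected HEK 293 cells stimulated with alpha-MSH peptide; potency of inhibitors of the alpha-MSH evoked signal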
# [3] = LGR2 antagonists, dose response, cell-based, HEK293, CRE-luciferase reporter, cherry pick, set 2 (AID 743343); type: functional;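 further: transfected cells were stimulated with diluted bursicon conditioned medium after compound addition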
# Estrogen receptor = target: T1, Estrogen receptor (Homo sapiens, UniProt P03372);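 further: potency for inhibiting coactivator peptide recruitment to the receptor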
# T1 sequence (P03372 whole entry): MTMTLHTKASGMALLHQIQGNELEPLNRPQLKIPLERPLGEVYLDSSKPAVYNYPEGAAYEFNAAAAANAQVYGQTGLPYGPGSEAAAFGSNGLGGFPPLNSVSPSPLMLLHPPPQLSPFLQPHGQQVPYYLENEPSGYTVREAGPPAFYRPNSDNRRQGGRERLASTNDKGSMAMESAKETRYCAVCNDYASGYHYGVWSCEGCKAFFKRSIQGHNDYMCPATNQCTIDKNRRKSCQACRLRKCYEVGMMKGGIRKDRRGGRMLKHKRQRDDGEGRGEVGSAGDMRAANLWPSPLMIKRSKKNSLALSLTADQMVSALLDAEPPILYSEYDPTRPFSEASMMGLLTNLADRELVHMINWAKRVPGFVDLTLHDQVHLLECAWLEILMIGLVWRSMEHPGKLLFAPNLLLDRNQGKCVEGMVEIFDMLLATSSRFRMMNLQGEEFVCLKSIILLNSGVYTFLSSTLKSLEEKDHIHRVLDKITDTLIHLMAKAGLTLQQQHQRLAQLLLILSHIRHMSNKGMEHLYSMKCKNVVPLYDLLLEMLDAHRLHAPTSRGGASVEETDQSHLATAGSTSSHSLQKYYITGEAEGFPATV
# Leucine aminopeptidase = target: T2, Leucine aminopeptidase (Plasmodium falciparum 3D7, UniProt Q8IL11); assay: P. falciparum M17LAP inhibitors, primary screen, biochemical, fluorogenic H-Leu-NHMec substrate, 1536-well (AID 1619); type: functional
# T2 sequence (Q8IL11 whole entry): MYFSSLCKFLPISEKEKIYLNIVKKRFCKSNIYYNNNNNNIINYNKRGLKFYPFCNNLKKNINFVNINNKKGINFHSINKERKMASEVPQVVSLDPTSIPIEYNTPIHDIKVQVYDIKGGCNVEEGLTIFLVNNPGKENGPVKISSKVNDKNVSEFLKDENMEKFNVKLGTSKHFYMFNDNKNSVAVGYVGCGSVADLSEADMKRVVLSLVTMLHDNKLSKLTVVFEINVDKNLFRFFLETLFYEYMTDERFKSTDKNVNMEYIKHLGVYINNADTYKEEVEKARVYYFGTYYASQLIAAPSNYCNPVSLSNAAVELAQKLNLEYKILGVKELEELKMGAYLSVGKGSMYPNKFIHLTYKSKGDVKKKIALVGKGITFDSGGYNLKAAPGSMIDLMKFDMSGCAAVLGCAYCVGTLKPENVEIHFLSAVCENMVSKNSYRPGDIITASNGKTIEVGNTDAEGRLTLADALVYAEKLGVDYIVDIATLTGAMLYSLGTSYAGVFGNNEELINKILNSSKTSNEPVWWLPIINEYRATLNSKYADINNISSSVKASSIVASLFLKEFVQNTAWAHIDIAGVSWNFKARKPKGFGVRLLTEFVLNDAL
# [4] = Luminescence Cell-Based Dose Confirmation HTS to Identify Activators of 5'UTR Stem-Loop Driven Alpha-Synuclein mRNA Translation in H4 Neuroglioblastoma Cells. [Related pubchem assays: 1829 (Project Summary), 1814 (Primary HTS)]; type: functional
# [5] = Counterscreen for inhibitors of Trypanosoma brucei methionyl tRNA synthetase (MetRS): Luminescence-based cell-based high throughput dose response assay to identify compounds that are cytotoxic to Jurkat human T lymphocyte cells.; type: functional
# [6] = target: T3, Methionyl-tRNA synthetase, putative (Trypanosoma brucei brucei, UniProt Q38C91); type: functional, Trypanosoma brucei brucei strain 927/4 GUTat10.1
# T3 sequence (Q38C91 whole entry): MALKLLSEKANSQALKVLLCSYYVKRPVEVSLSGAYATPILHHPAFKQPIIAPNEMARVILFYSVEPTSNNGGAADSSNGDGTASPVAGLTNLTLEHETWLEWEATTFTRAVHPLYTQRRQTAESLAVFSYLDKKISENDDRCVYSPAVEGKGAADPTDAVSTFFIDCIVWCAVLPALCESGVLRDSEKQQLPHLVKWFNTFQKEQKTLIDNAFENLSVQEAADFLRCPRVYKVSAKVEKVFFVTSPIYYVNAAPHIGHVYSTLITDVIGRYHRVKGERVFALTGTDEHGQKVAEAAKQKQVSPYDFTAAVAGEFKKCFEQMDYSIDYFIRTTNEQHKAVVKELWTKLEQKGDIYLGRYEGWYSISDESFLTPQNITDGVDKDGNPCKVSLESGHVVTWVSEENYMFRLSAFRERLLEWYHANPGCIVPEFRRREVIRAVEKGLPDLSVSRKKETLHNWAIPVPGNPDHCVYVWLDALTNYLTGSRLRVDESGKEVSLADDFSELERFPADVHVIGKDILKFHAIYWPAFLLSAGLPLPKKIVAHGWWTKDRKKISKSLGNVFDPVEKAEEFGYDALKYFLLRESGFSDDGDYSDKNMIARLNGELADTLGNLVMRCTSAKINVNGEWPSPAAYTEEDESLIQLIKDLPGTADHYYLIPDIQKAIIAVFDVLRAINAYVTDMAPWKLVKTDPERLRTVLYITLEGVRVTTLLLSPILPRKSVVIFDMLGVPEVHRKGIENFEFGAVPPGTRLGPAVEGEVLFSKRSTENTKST
# H4 = assay: Luminescence Cell-Based Dose Response HTS to Identify Activators of 5'UTR Stem-Loop Driven Prion Protein mRNA Translation in H4 Neuroglioblastoma Cells. [Related pubchem assays: 1829 (Project Summary), 1814 (Primary HTS)]; type: functional; conditions: Homo sapiens
# [7] = Luminescence Cell-Based Dose Response HTS to Identify Activators of Luciferase Translation or Activity in H4 […] Cells. [Related pubchem assays: 1829 (Project Summary), 1814 (Primary HTS)]; type: functional
# [8] = target: T3, Methionyl-tRNA synthetase, putative; type: functional, Trypanosoma brucei brucei strain 927/4 GUTat10.1; remark: listed apart in the source
# [9] = target: T4, Calpain-2 catalytic subunit (Sus scrofa, UniProt P43367); assay: pig calpain II inhibitor potency, dose response, biochemical, fluorogenic peptide substrate (AID 1420); type: functional
# T4 sequence (P43367 whole entry): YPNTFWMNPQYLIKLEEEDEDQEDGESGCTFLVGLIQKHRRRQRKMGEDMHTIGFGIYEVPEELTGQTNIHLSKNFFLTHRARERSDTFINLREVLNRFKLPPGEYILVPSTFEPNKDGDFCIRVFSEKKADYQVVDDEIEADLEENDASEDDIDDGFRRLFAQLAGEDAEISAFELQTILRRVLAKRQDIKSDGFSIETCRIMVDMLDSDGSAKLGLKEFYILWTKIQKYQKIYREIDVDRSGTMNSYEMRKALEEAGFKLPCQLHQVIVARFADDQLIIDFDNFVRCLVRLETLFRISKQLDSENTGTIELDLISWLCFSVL
# Vero = assay: host cell cytotoxicity of antiviral hits, dose response, cytotoxicity control for West Nile virus antiviral project, secondary assay (AID 1650); type: functional; conditions: Chlorocebus sabaeus
# Paired box protein Pax-8 = Paired box protein Pax-8 (Homo sapiens, UniProt Q06710); assay: inhibitors of PAX8-driven TPO luciferase reporter, dose response, RMG-I cells, cherry-pick (AID 687027); type: functional, cell-based;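 further: luciferase reporter driven by Pax8 target thyroperoxidase promoter measured by SteadyGlo luminescence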
# [10] = target: T5, Heat shock factor protein 1 (Mus musculus, UniProt P38532); assay: HSF1 potentiators in luciferase reporter cells, confirmation, cell-based, NIH3T3, luminescence, dose retest (AID 435004); type: functional;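 further: stress induced by proteasome inhibitor MG132 added 30 min after compound; luciferase reporter driven by HSF1 response element in NIH3T3 cells; actives raise luminescence as potentiators of the MG132 stress response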
# T5 sequence (P38532 whole entry): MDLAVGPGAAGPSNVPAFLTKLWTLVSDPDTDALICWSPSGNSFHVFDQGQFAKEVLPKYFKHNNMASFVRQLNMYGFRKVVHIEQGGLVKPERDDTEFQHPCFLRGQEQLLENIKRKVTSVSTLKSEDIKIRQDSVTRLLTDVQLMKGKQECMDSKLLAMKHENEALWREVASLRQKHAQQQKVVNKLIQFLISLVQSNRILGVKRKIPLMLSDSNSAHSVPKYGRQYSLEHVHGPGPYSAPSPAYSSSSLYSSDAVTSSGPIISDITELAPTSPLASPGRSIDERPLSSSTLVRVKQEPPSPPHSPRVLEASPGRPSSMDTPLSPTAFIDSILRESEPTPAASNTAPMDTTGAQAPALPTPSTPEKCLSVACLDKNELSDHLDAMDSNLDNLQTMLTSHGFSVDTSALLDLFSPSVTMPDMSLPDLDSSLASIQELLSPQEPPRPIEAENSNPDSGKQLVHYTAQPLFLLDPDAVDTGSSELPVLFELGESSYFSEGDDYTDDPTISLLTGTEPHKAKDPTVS
# Streptokinase A = target: T6, Streptokinase A (Streptococcus pyogenes serotype M1, UniProt P10520); assay: S. pyogenes streptokinase expression inhibitors, potency, dose response, plasminogen activation absorbance, OD405 (AID 1914); type: functional, Streptococcus pyogenes M1 GAS;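 further: secreted streptokinase activity via plasminogen activation per viability signal from cell pellet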
# T6 sequence (P10520 whole entry): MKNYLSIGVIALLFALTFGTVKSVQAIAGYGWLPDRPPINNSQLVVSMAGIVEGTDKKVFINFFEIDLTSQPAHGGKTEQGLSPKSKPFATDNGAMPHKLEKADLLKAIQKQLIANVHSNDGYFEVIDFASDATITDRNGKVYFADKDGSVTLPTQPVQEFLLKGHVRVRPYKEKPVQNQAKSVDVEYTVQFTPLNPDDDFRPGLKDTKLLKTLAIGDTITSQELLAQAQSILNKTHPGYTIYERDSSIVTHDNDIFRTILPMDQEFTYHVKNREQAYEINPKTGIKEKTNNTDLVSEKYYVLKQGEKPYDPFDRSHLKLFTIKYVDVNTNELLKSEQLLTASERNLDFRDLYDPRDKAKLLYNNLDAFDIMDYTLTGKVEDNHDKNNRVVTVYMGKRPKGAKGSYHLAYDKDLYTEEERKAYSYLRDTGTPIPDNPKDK
# [11] = tested on: Streptococcus sp. 'group A'; assay: growth inhibition of control SK(-) GAS strain, dose response, counter-screen for streptokinase expression inhibitor project, luminescence, kanamycin, BacTiterGlo, confirmation (AID 1900); type: functional, organism-based
# [12] = Luminescence Cell-Based Dose Retest to Confirm Inhibitors of Cancer Stem Cells. [Related pubchem assays (depositor defined):AID2717, AID2721]; type: functional; conditions: Homo sapiens
# Streptococcus = assay: Group A Streptococcus viability loss, dose response, counter-screen for streptokinase expression inhibitor project, luminescence, BacTiterGlo (AID 1915); type: functional, organism-based;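 further: potency for reduction of bacterial viability or growth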
# [13] = cytotoxicity toward NIH3T3 fibroblasts, dose response, counter-screen, cell-based, ATP luminescence, mouse fibroblasts (AID 2010); type: functional;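 further: cells exposed to compound for about 90 hours before reading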
# [14] = inhibitors of intracellular T. cruzi replication, confirmation, NIH3T3 host cells, beta-gal luminescence (AID 2044); type: functional, cell-based;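 further: intracellular parasites grown in NIH/3T3 mouse fibroblasts as host cells; luminescent beta-galactosidase reporter signal from transgenic T. cruzi replicating inside host cells; inhibitors lower the luminescence signal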
# [15] = P. falciparum ATP4 D1247Y mutant growth inhibitors, dose response, NITD609-resistant line, SYBR Green, dry powder (AID 1159571); type: functional, cell-based;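 further: parasites synchronized at ring stage by sorbitol before testing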
# [16] = P. falciparum Dd2 growth inhibitors, dose response, SYBR Green, dry powder samples (AID 1159566); type: functional, cell-based;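 further: potency for growth inhibition with lower SYBR green DNA signal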
# [17] = P. falciparum Dd2 growth inhibitors, dose response, SYBR Green, cherry-picked samples (AID 1159567); type: functional, cell-based
# [18] = P. falciparum 3D7-ScDHODH growth inhibitors, dose response, SYBR Green, dry powder samples (AID 1159570); type: functional, cell-based;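 further: parasite growth measured after 72 hours of compound exposure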
# Chain of Paired box protein Pax-8 (Q06710 whole entry): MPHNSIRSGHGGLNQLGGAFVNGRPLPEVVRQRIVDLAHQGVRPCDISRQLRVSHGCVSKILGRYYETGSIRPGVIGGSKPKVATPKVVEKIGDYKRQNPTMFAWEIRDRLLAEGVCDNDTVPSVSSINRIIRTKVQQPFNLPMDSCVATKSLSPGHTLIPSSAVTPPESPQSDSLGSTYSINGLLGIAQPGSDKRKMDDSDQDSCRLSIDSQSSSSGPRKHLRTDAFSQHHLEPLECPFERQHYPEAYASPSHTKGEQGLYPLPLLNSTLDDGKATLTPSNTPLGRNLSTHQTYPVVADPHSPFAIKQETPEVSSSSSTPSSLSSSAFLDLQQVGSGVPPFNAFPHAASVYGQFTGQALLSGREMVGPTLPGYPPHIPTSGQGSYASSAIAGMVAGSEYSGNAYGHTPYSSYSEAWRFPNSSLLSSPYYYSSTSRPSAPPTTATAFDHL
smiles,measurement,setting,value
COc1ccc(-n2nnnc2-c2nc3ccccc3s2)cc1,AC50,[1],> 52 µM (inactive)
same,AC50,[2],7.96 µM (active)
same,AC50,[3],6.52 µM (active)
CC1(C)CC(=O)c2cnc(NCC3CCCO3)nc2C1 (stereo not drawn),IC50,Estrogen receptor,> 50 µM (not active)
CCOC(=O)c1c(NC(=O)CSc2nnc(C)c(=O)[nH]2)sc2c1CCC2,IC50,Leucine aminopeptidase,7.77 µM (active)
O=C(Nc1cccc(-c2cnc3ccccc3n2)c1)c1cccc(NC(=O)c2ccco2)c1,IC50,Estrogen receptor,13.1 µM (active)
Cc1ccccc1Oc1cc(NC(=O)Cn2cnc([N+](=O)[O-])c2)cc([N+](=O)[O-])c1,EC50,[4],> 120 µM (not active)
same,IC50,[5],37.3 µM (inactive)
same,IC50,[6],51.3 µM (inactive)
same,EC50,H4,> 120 µM (not active)
same,EC50,[7],> 120 µM (not active)
same,IC50,[8],52.5 µM (inactive)
O=C(NCc1cccs1)c1cccc(Nc2nc3cc(Br)ccc3[nH]2)c1,IC50,[9],11.1 µM (not active)
same,IC50,[5],83.1 µM (inactive)
same,IC50,[6],38.7 µM (inactive)
same,IC50,[8],31.3 µM (inactive)
CC(=O)NS(=O)(=O)c1ccc(NC(=O)c2cc(-c3ccc(C)cc3)nc3ccccc23)cc1,IC50,Leucine aminopeptidase,13.7 µM (active)
CCOC(=O)c1c(NC(=O)CCS(=O)(=O)c2ccccc2)sc2c1CCN(C(C)C)C2,CC50,Vero,69.1 µM (active)
O=C(NCC1CCCO1)C(=Cc1cccc([N+](=O)[O-])c1)C(=O)NCC1CCCO1 (stereo not drawn),CC50,Vero,23.6 µM (active)
same,AC50,Paired box protein Pax-8,3.43 µM (active)
O=C(Nc1cccc(Cl)c1)Nc1csc([N+](=O)[O-])c1,EC50,[10],31.6 µM (active)
same,CC50,Vero,> 100 µM (active)
same,EC50,Streptokinase A,> 150 µM (not active)
same,EC50,[11],9.68 µM (active)
same,AC50,[12],4.34 µM (active)
same,EC50,Streptococcus,15.3 µM (active)
same,AC50,Paired box protein Pax-8,11.6 µM (active)
same,EC50,[13],> 60 µM (not active)
same,EC50,[14],3.47 µM (active)
COc1ccc(-c2ccccc2[C@H]2[C@@H](C#N)N(C(=O)C3CCCCC3)[C@H]2CO)cc1,AC50,[15],5.94 µM (active)
same,AC50,[16],1.52 µM (active)
same,AC50,[17],1.03 µM (active)
same,AC50,[18],1.38 µM (active)
